Assay [1] addresses T1, recombinant human MMP-1 (Homo sapiens, UniProt P03956).
T1 construct: made in house; host or cells: transfected HT-1080 cells (provided by Dr. Howard Welgus, Washington University)
T1 sequence (P03956 100-469): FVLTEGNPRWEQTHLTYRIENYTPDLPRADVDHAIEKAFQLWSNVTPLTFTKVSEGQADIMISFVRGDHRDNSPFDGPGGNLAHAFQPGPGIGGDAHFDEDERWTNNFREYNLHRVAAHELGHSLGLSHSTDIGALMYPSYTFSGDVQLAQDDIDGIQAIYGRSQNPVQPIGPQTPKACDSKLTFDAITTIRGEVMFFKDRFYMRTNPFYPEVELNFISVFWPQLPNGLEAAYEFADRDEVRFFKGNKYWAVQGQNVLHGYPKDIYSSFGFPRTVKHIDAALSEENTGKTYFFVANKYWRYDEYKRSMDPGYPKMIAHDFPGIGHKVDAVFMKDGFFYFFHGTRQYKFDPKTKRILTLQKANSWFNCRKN
Description: In vitro metalloprotease inhibition, fluorogenic peptide assay (MMP-1). Format: biochemical. To be noted: recombinant human MMP-1, APMA activated; fluorogenic MCA peptide substrate 4 uM; pH 7.5, room temperature. In short, it runs like this: (§1)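 APMA-activated recombinant human MMP-13 (baculovirus-expressed) and MMP-1 (HT-1080-expressed) preincubated with inhibitor 10 min at room temperature in Tris/NaCl/CaCl2 buffer, pH 7.5, 1% DMSO final. MCA-PLGL-Dpa-AR-NH2 substrate at 4 uM final; cleavage read as fluorescence (ex 328/em 415 nm). IC50 from fluorescence reduction versus inhibitor concentration.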

For assay [2], the target named is T2, recombinant human MMP-13 (Homo sapiens, UniProt P45452).
T2 construct: made in house
Nature of the assay: In vitro metalloprotease inhibition, fluorogenic peptide assay (MMP-13). To be noted: recombinant human MMP-13, APMA activated; fluorogenic MCA peptide substrate 4 uM; pH 7.5, room temperature. Format: biochemical. In short, it runs like this:
as §1

What is called IC50 is the concentration at which inhibition is half-maximal. `C[C@H](CS)NS(=O)(=O)c1ccc(Sc2ccccc2)cc1` [Example 101]: the results for the IC50 in assay [1] and in assay [2] were > 10000 nM and 30 nM, respectively.
In the case of `C[C@H](CS)N(CC(=O)O)S(=O)(=O)c1ccc(Sc2ccccc2)cc1` [Example 103], the IC50 was > 10000 nM in assay [1] and 17 nM in assay [2].
In the same order, the values of `CCCCOc1ccc(S(=O)(=O)N(CCN2CCOCC2)[C@H](C)CS)cc1` [Example 107] are 4000 nM and 2.7 nM.
In the same order, the values of `CCCCOc1ccc(S(=O)(=O)NC(CO)CS)cc1` (stereo not shown) [Example 110] are > 10000 nM and 1600 nM.
In the same order, the values of `COc1ccc(S(=O)(=O)N(Cc2ncc[nH]2)[C@H](C)CS)cc1` [Example 111] are 2000 nM and 40 nM.
In the case of `COc1ccc(S(=O)(=O)N(Cc2ccsc2)[C@H](C)CS)cc1` [Example 112], the IC50 was 4000 nM in assay [1] and 150 nM in assay [2].
Consider `C[C@H](CS)N(CCN1CCOCC1)S(=O)(=O)c1ccc(Oc2ccccc2)cc1` [Example 113], for which the half-inhibitory concentration (IC50) in assay [1] worked out at 125 nM; in assay [2], 0.25 nM.
In the same order, the values of `COCCOc1ccc(S(=O)(=O)N(CCN2CCOCC2)[C@H](C)CS)cc1` [Example 114] are > 10000 nM and 45 nM.
Take `CC(=O)SC[C@@H](C)N(CCN1CCOCC1)S(=O)(=O)c1ccc(Oc2ccc(CCC(=O)OC(C)(C)C)cc2)cc1` [Example 115]: the IC50 is > 10000 nM in assay [1] and 220 nM in assay [2].
In the case of `C[C@H](CS)N(CCN1CCOCC1)S(=O)(=O)c1ccc(Oc2ccc(CCC(=O)O)cc2)cc1` [Example 117], the IC50 stood at 8000 nM in assay [1] and 15 nM in assay [2].
With `C[C@H](CS)N(CCN1CCOCC1)S(=O)(=O)c1ccc(Oc2ccc(CCC(=O)O)cc2)cc1` [Example 118], the half-inhibitory concentration (IC50) in assay [1] came to 7000 nM; in assay [2], 14 nM.
For `Cc1ccccc1-c1ccc(S(=O)(=O)N(C)[C@H](C)CS)cc1` [Example 122], the IC50 was > 10000 nM in assay [1] and 4250 nM in assay [2].
In the same order, the values of `COc1cccc(-c2ccc(S(=O)(=O)N(C)[C@H](C)CS)cc2)c1` [Example 123] are > 10000 nM and 115 nM.
Turning to `COc1ccc(-c2ccc(S(=O)(=O)N(C)[C@H](C)CS)cc2)cc1` [Example 124], the half-inhibitory concentration (IC50) is 2100 nM in assay [1] and < 0.5 nM in assay [2].
In the same order, the values of `C[C@H](CS)N(C)S(=O)(=O)c1ccc(-c2cccc(C(F)(F)F)c2)cc1` [Example 125] are > 10000 nM and 770 nM.
Regarding `CC(C)Oc1ccc(-c2ccc(S(=O)(=O)N(CCN3CCOCC3)[C@@H](CS)C(N)=O)cc2)cc1` [Example 126], the results for the half-inhibitory concentration (IC50) in assay [1] and in assay [2] were > 100 nM and 3.5 nM, respectively.
Regarding `CCCCCc1ccc(S(=O)(=O)N(CCN2CCOCC2)[C@@H](CS)C(N)=O)cc1` [Example 128], the IC50 is 5000 nM in assay [1] and 1.1 nM in assay [2].
In the same order, the values of `COc1ccc(S(=O)(=O)N(C)CCc2ccccc2S)cc1` [Example 130] are > 10000 nM and 3300 nM.
In the same order, the values of `COc1ccc(-c2ccc(S(=O)(=O)N(CCN3CCOCC3)[C@@H](CS)C(N)=O)cc2)cc1` [Example 131] are 70 nM and < 0.1 nM.
In the same order, the values of `C[C@H](CSC(=O)c1cccs1)N(CCN1CCOCC1)S(=O)(=O)c1ccc(Sc2ccccc2)cc1` [Example 132] are > 10000 nM and 47 nM.
With `C[C@H](CSC(=O)C(C)(C)C)N(CCN1CCOCC1)S(=O)(=O)c1ccc(Sc2ccccc2)cc1` [Example 133], the IC50 in assay [1] was > 10000 nM; in assay [2], 4200 nM.
In the same order, the values of `C[C@H](CS)NS(=O)(=O)c1ccc(S(C)(=O)=O)cc1` [Example 147] are < 10000 nM and > 10000 nM.
In the same order, the values of `C[C@H](CS)NS(=O)(=O)c1ccc(Cc2ncc(C(F)(F)F)cc2Cl)s1` [Example 155] are > 10000 nM and > 10000 nM.
In the same order, the values of `C[C@H](CS)N(C)S(=O)(=O)c1ccc(-c2ccccn2)s1` [Example 156] are 1070 nM and 7.3 nM.
Regarding `CCCCOc1ccc(S(=O)(=O)N[C@@H](CS)C(=O)NC(C)C)cc1` [Example 166], the half-inhibitory concentration (IC50) in assay [1] is > 10000 nM; in assay [2], 880 nM.
Regarding `CCCCOc1ccc(S(=O)(=O)N[C@@H](CS)C(=O)NC)cc1` [Example 171], the values for the half-inhibitory concentration (IC50) in assay [1] and in assay [2] were > 10000 nM and 30 nM, respectively.
In the same order, the values of `CCCCOc1ccc(S(=O)(=O)N[C@@H](CS)C(=O)NCCN2CCOCC2)cc1` [Example 172] are > 10000 nM and 250 nM.
In the same order, the values of `CCCCOc1ccc(S(=O)(=O)N(Cc2ccncc2)[C@@H](CS)C(N)=O)cc1` [Example 175] are 400 nM and 0.7 nM.
In the same order, the values of `CCCCOc1ccc(S(=O)(=O)N(CCN2CCOCC2)[C@@H](CS)C(=O)NC)cc1` [Example 176] are 2900 nM and 2.5 nM.
With `CCCCOc1ccc(S(=O)(=O)N[C@@H](CS)C(=O)N(C)C)cc1` [Example 178], the figures for the half-inhibitory concentration (IC50) in assay [1] and in assay [2] were > 10000 nM and 300 nM, respectively.
In the same order, the values of `CCCCOc1ccc(S(=O)(=O)N[C@@H](CS)C(=O)NCC(=O)O)cc1` [Example 179] are 2000 nM and 23.5 nM.
In the same order, the values of `CCCCOc1ccc(S(=O)(=O)N[C@@H](CS)C(=O)N[C@@H](Cc2ccccc2)C(=O)NC)cc1` [Example 180] are > 10000 nM and 700 nM.
In the same order, the values of `CCCCOc1ccc(S(=O)(=O)N[C@@H](CS)C(=O)O)cc1` [Example 181] are > 10000 nM and 3000 nM.
Turning to `CCCCOc1ccc(S(=O)(=O)N[C@@H](CS)C(=O)N[C@@H](Cc2ccccc2)C(N)=O)cc1` [Example 186], the 50% inhibitory concentration (IC50) was > 10000 nM in assay [1] and 1100 nM in assay [2].
In the same order, the values of `C[C@H](CS)NS(=O)(=O)c1ccc([N+](=O)[O-])cc1` [Example 192] are > 10000 nM and > 10000 nM.
In the same order, the values of `CCC(C)(C)c1ccc(S(=O)(=O)N[C@H](C)CS)cc1` [Example 193] are > 10000 nM and > 10000 nM.
In the same order, the values of `CC(=O)Nc1ccc(S(=O)(=O)N[C@@H](CS)C(N)=O)cc1` [Example 199] are > 10000 nM and 350 nM.
For the compound `CCCCOc1ccc(S(=O)(=O)N[C@@H](CS)C(N)=O)cc1` [Example 201], the results for the half-inhibitory concentration (IC50) in assay [1] and in assay [2] were 7000 nM and 3.3 nM, respectively.
In the same order, the values of `CC(=O)Nc1ccc(S(=O)(=O)N(C)[C@@H](CS)C(N)=O)cc1` [Example 203] are > 10000 nM and 170 nM.
In the same order, the values of `CCCCOc1ccc(S(=O)(=O)N(CCC(C)C)[C@@H](CS)C(N)=O)cc1` [Example 208] are > 10000 nM and 190 nM.
Turning to `CCCCOc1ccc(S(=O)(=O)N[C@@H](CS)C(=O)NCc2ccccc2)cc1` [Example 209], the IC50 in assay [1] is > 10000 nM; in assay [2] it was 50 nM.
`NC(=O)[C@H](CSSC[C@@H](C(N)=O)N(CCN1CCOCC1)S(=O)(=O)c1ccc(Oc2ccccc2)cc1)N(CCN1CCOCC1)S(=O)(=O)c1ccc(Oc2ccccc2)cc1` [Example 213]: the IC50 is > 10000 nM in assay [1] and 1.5 nM in assay [2].
In the same order, the values of `CC(=O)SC[C@@H](C(N)=O)N(CCN1CCOCC1)S(=O)(=O)c1ccc(Sc2ccccc2)cc1` [Example 216] are > 10000 nM and 200 nM.
In the same order, the values of `C[C@H](CS)NS(=O)(=O)c1ccc(/N=N/c2ccc(N(C)C)cc2)cc1` [Example 217] are > 10000 nM and 1.5 nM.
In the same order, the values of `NC(=O)[C@H](CS)N(CCN1CCOCC1)S(=O)(=O)c1ccc(NC(=O)c2ccc(Cl)cc2)cc1` [Example 220, N-(4-(4′-chlorobenzoyl)amino)phenylsulfonyl-N-(4-(morpholinoethyl))-L-cysteine amide] are 7000 nM and 1.4 nM.
`NC(=O)[C@H](CS)N(CCN1CCOCC1)S(=O)(=O)c1ccc(NC(=O)c2ccc(Br)cc2)cc1` [Example 222, N-(4-(4′-bromobenzoyl)amino)phenylsulfonyl-N-(4-(morpholinoethyl))-L-cysteine amide]: the concentration for half-maximal inhibition (IC50) in assay [1] came to 5300 nM; in assay [2], 1.1 nM.
In the same order, the values of “N-(1R-Mercaptomethyl)propyl-N-methyl-4-(n-butoxy)benzenesulfonamide [Example 23C]” are 4000 nM and 150 nM.
With “N-(2-Mercapto-1R-methylethyl)-N-[2-(4-morpholino)ethyl]-4-(thiophenyl)benzenesulfonamide Hydrochloride [Example 91D]”, the half-inhibitory concentration (IC50) in assay [1] was > 10000 nM; in assay [2], 0.7 nM.
As to “N-(2-Mercapto-1S-methylethyl)-N-(phenylmethyl)-4-methoxybenzenesulfonamide [Example 13C]”, the IC50 is > 10000 nM in assay [1] and 2000 nM in assay [2].
In the same order, the values of “N-(2-mercapto-1R-methylethyl)-4-methylbenzenesulfonamide [Example 68]” are > 10000 nM and 1720 nM.

The record behind these values is US6747027B1, “Thiol sulfonamide metalloprotease inhibitors” (Pharmacia Corporation, priority 1996, dated 2004).
